Where two headings read alike, the source gives them in different places.
Assays:
β2 adrenergic receptor = β2 adrenergic receptor (Homo sapiens (Human), UniProt P07550); assay: cAMP Gs dynamic HTRF assay, β2 expressing CHO cells; type: cell-based; conditions: B2-AR
Description: (§1) cAMP homogeneous time-resolved fluorescence (HTRF). Compound efficacy was determined using the cAMP Gs dynamic HTRF assay (Cisbio, catalog #62AM4PEC) largely following the manufacturer's instructions, also detailed below.
(§2) Compound preparation. […] Standard serial dilution curves were 10-point, 5-fold dilutions starting from a highest concentration of 10 μM. […] Assay plates were centrifuged at 500×g for 10 seconds. Compounds and IBMX were prepared at 2× final dose to compensate for addition of cells.
(§3) Cell preparation. 1× stimulation buffer, washing PBS (Dulbecco's phosphate-buffered saline, −Mg −Ca; Caisson Labs, catalog #PBL01), assay PBS (Dulbecco's phosphate-buffered saline, +Mg, +Ca; Caisson Labs, catalog #PBL02) and Versene (0.02% EDTA disodium salt solution in PBS without calcium or magnesium; Caisson Labs, catalog #EDL01) were pre-warmed to 37° C. Cells expressing beta-adrenergic receptor were washed in washing PBS to remove growth medium and then released from the surface by incubating with Versene for 5-10 minutes at 37° C. Cells were harvested using assay PBS, counted manually by hemocytometer or by an automated cell counter, pelleted by centrifugation (200×g, 5 minutes) and resuspended in 37° C. 1× stimulation buffer to a final density of 1.5×10^6 cells/mL. 5 μL of the suspended cell solution (7500 cell total) were added to all wells of the 384 well assay plate, the assay plate was covered with an Axygen® plate seal (Corning PCR-SP) and incubated in a humidified 37° C. environment supplemented with 5% CO2 for 30 minutes.
(§4) HTRF reagent addition, reading and data analysis. After 30 minutes of cell stimulation with test compound, the assay plates were centrifuged at 500×g for 10 seconds, and incubation was stopped with the addition of 5 μL cAMP-D2 acceptor, diluted 1:21 in detection and lysis buffer 2 (Cisbio 62CL2FDF) was added to all cells. Subsequently, 5 μL Anti-cAMP-Eu Donor, diluted 1:21 in detection and lysis buffer 2, was added to cells. Plates were sealed and reactions gently ‘vortexed’ at 900 rpm on a Heidolph Titramax 1000 for at least 30 minutes at room temperature. Plates were centrifuged again at 500×g for 10 seconds, and HTRF was measured using a Tecan Spark plate reader at 50 flashes per well. […] Potency estimates (EC50) were derived from the four-parameter nonlinear regression of the concentration-effect curve and an estimate of relative efficacy was determined by comparing the magnitude of the test compound HTRF signal window (min−max dose) with the signal window of the full agonist control, isoproterenol.

β1-adrenergic receptor = β1-adrenergic receptor (Homo sapiens (Human), UniProt P08588); assay: cAMP Gs dynamic HTRF assay, β1 expressing CHO cells; type: cell-based; conditions: B1-AR
Description: as §1, §2, §3, §4

[1] = CHO-K1 (HitHunter), read-out: Average pEC50 [Receptor subtype: B2-AR, Cell type: CHO-K1 (HitHunter)] (converted)
[2] = CHO-K cells, read-out: Average EC50 [Receptor subtype: B1-AR, Cell type: CHO-K]
[3] = CHO-K1 (HitHunter), read-out: Average pEC50 [Receptor subtype: B1-AR, Cell type: CHO-K1 (HitHunter)] (converted)
[4] = CHO-K cells, read-out: Average EC50 [Receptor subtype: B2-AR, Cell type: CHO-K]

β2 adrenergic receptor, sequence (P07550 whole entry, species assumed): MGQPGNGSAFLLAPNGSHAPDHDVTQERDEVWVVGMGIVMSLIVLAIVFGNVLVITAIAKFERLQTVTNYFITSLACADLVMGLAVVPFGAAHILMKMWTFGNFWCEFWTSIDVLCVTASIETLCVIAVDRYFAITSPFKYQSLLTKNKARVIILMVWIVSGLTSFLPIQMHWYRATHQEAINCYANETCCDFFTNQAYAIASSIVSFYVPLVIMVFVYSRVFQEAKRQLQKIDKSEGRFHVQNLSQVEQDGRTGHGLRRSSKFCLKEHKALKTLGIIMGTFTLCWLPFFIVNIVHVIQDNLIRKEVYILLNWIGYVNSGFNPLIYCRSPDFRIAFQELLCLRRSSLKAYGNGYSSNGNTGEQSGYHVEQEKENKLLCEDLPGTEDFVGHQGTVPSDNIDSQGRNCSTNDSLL
β1-adrenergic receptor, sequence (P08588 whole entry, species assumed): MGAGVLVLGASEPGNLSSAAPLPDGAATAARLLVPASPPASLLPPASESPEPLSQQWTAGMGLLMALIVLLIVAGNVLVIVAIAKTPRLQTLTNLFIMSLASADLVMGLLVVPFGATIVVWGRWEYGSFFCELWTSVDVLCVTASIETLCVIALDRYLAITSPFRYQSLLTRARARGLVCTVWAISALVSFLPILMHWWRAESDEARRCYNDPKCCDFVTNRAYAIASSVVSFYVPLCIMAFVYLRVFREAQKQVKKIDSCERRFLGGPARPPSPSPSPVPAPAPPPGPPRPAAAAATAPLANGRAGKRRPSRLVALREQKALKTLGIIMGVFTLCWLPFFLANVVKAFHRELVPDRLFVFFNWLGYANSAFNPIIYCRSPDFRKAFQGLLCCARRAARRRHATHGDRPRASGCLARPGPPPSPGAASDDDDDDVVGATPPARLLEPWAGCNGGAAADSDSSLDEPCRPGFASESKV

Compound	EC50 (β2 adrenergic receptor; [1])	EC50 (β2 adrenergic receptor; [4])	also measured
CC(=O)Nc1cccc([C@@H](O)CNC(C)(C)C)n1 [Compound 03-194]	> 1000 nM	–	–
Cc1cnc(C2CCCC2)c([C@@H](O)CNC(C)(C)C)c1 [Compound 03-77]	> 1000 nM	–	–
CC(C)(C)NC[C@@H](O)c1cccc(-c2cccc(F)c2)n1 [Compound 03-132]	–	–	Average pEC50 [Receptor subtype: B1-AR; Cell type: CHO-K1 (HitHunter)] (β1-adrenergic receptor; CHO-K1 (HitHunter)): D (D < 6); EC50 (β1-adrenergic receptor; [2]): > 1000 nM
CC(C)(C)NC[C@H](O)c1cccnc1C1=CCCC1 [Compound 03-62]	> 1000 nM	–	–
CC(C)(C)NC[C@H](O)c1cccc(C(=O)O)n1 [Compound 03-240]	> 1000 nM	–	–
Cn1cc(-c2cccc([C@H](O)CNC(C)(C)C)n2)cn1 [Compound 03-224]	100 to 1000 nM	–	–
CC(C)(C)NC[C@@H](O)c1cccc(N2CCCCC2)n1 [Compound 03-138]	–	–	EC50 (β1-adrenergic receptor; [3]): > 1000 nM; EC50 (β1-adrenergic receptor; [2]): > 1000 nM
CC(C)(C)NC[C@H](O)c1cccnc1-c1cccc(F)c1 [Compound 03-61]	> 1000 nM	> 1000 nM	–
CC(C)(C)NC[C@H](O)c1cccnc1C(F)(F)F [Compound 03-118]	100 to 1000 nM	100 to 1000 nM	–
CC(C)(C)NC[C@@H](O)c1cccc(-c2ccc(F)cc2)n1 [Compound 03-146]	–	–	EC50 (β1-adrenergic receptor; [3]): 100 to 1000 nM; EC50 (β1-adrenergic receptor; [2]): 100 to 1000 nM
CC(C)(C)NC[C@@H](O)c1cccc(NC2CCCC2)n1 [Compound 03-236]	100 to 1000 nM	–	–
CC(C)(C)NCC(O)c1cccnc1C(=O)O (centres unmarked) [Compound 03-113]	> 1000 nM	> 1000 nM	–
CC(C)(C)NC[C@@H](O)c1nccc2ccccc12 [Compound 03-187]	–	> 1000 nM	–
CC(C)(C)NC[C@H](O)c1cccnc1CC(F)(F)F [Compound 03-84]	> 1000 nM	–	–
CC(C)(C)NCC(O)c1cccnc1C(=O)NC(C)(C)C (centres unmarked) [Compound 03-112]	> 1000 nM	> 1000 nM	–
OC(CNC1(C(F)(F)F)CC1)c1cccc(C(F)(F)F)n1 (centres unmarked) [Compound 03-218]	> 1000 nM	–	–
CC(C)(C)N(O)C[C@H](O)c1cccc(C(N)=O)n1 [Compound 03-245]	> 1000 nM	–	–
CC(C)Oc1cccc([C@H](O)CNC(C)(C)C)n1 [Compound 03-180]	100 to 1000 nM	100 to 1000 nM	–
CN(C)c1ncccc1[C@@H](O)CNC(C)(C)C [Compound 03-56]	> 1000 nM	> 1000 nM	–
CC(C)(C)NC[C@@H](O)c1ccc(C#N)c(C(F)(F)F)n1 [Compound 03-31]	> 1000 nM	> 1000 nM	–
CC(C)(C)NC[C@H](O)c1nc(C(F)(F)F)cc2ccccc12 [Compound 03-171]	–	> 1000 nM	–
CC(C)(C)NC[C@H](O)c1ccncc1C(F)(F)F [Compound 03-242]	> 1000 nM	–	–
Cc1ccccc1-c1cccc([C@H](O)CNC(C)(C)C)n1 [Compound 03-150]	–	–	EC50 (β1-adrenergic receptor; [3]): > 1000 nM; EC50 (β1-adrenergic receptor; [2]): > 1000 nM
CC(C)(C)NC[C@H](O)c1ccnc(C(F)(F)F)c1 [Compound 03-227]	> 1000 nM	–	–
CN1CCN(c2cccc([C@@H](O)CNC(C)(C)C)n2)CC1 [Compound 03-139]	–	–	Average pEC50 [Receptor subtype: B1-AR; Cell type: CHO-K1 (HitHunter)] (β1-adrenergic receptor; CHO-K1 (HitHunter)): D (D < 6); EC50 (β1-adrenergic receptor; [2]): > 1000 nM
Cc1ncccc1[C@H](O)CNC(C)(C)C [Compound 03-116]	> 1000 nM	> 1000 nM	–
CCNc1ncccc1[C@@H](O)CNC(C)(C)C [Compound 03-73]	> 1000 nM	–	–
CC(C)(C)NC[C@H](O)c1cccc(-c2nnn[nH]2)n1 [Compound 03-18]	–	–	Average pEC50 [Receptor subtype: B1-AR; Cell type: CHO-K1 (HitHunter)] (β1-adrenergic receptor; CHO-K1 (HitHunter)): D (D < 6); EC50 (β1-adrenergic receptor; [2]): > 1000 nM
CCOc1cccc([C@H](O)CNC(C)(C)C)n1 [Compound 03-178]	100 to 1000 nM	100 to 1000 nM	–
